Measurements from patent US20230393140A1, “BINDING ASSAYS INVOLVING A PLURALITY OF SYNTHETIC COMPOUNDS, TARGETS, AND COUNTER TARGETS” (SRI International, priority 2020, published 2023).
Where two headings read alike, the source gives them in different places. Numbered stars: 1 amine (or outer) side, 2 acyl side, 3 side chain; on linkers, the order of the positions; unused ones are H or OH. Square brackets hold non-standard residues; d marks the D form. Peptide text beside a SMILES is read from it. * marks the point of attachment. 5FAM = O=C1OC2(c3ccc(O)cc3Oc3cc(O)ccc32)c2ccc(C(=O)*)cc21; NHCH2C6H4(4-CH2CONH2) = NC(=O)Cc1ccc(CN*)cc1; X1 = O=C(Cc1ccc(CN[*:1])cc1)[*:2]

Target: T1, IL-6 (Homo sapiens, UniProt P05231)
T1 construct: purchased Creative Biomart IL6-12H
Experiment: MST binding affinity of resynthesized NNP hits to IL-6
Description: Hit binding affinity to various targets were determined using Microscale Thermophoresis (MST). MST experiments were performed on a Monolith NT.115pico (NanoTemper Technologies GmbH, Munich, Germany). Measurements were performed at room temperature, in triplicate with incubation periods of 15, 30 and 45 minutes. […] Targets were labeled using Nanotemper Monolith 2nd Generation Protein Labeling Kits. RED-MALEIMIDE (Maleimide-647-dye) labeling kit was used for K-Ras and RED-NHS (NHS-647-dye) labeling kit was used for IL-6, IL-6R, TNFα and ASGPR. The buffer for the ASGPR contained 20 mM HEPES pH 7.4, 150 mM NaCl, 10 mM MgCl2, 2 mM CaCl2, 0.05% Pluronic F-127, and 1 mM DTT; for IL-6 contained 20 mM HEPES pH 7.4, 150 mM KCl, 10 mM MgCl2, and 0.1% Pluronic F-127; for the soluble IL-6 receptor 20 mM HEPES pH 7.4, 150 mM NaCl, 10 mM MgCl2, and 0.05% Tween-20; for K-Ras 20 mM HEPES pH 7.4, 150 mM NaCl, 10 mM MgCl2, 0.05% Tween-20 and 1 mM DTT; for TNFα 10 mM HEPES pH 7.4, 150 mM NaCl, 10 mM MgCl2, 0.05% Polysorbate-20. Triplicate data was analyzed using MO.AffinityAnalysis software (NanoTemper Technologies GmbH).

[1] = read-out: KD (nM) [95% conf. int], NNP2 library hit, target IL-6, one-site binding model
[2] = NNP2 library hit, target IL-6, one-site binding model

SMILES: CC(C)C[C@H](NC(=O)[C@@H](CCCNC(=N)N)NC(=O)[C@@H](Cc1c[nH]c2ccccc12)NC(=O)Cc1ccc(CNC(=O)[C@H](Cc2ccccc2)NC(=O)[C@@H](CO)NC(=O)[C@@H](CCCNC(=N)N)NC(=O)Cc2ccc(CNC(=O)[C@@H](NC(=O)[C@@H](CO)NC(=O)[C@@H](Cc3ccc(O)cc3)NC(=O)Cc3ccc(CNC(=O)[C@H](CC(C)C)NC(=O)[C@@H](CC(C)C)NC(=O)[C@@H](Cc4ccc(O)cc4)NC(=O)c4ccc5c(c4)C(=O)OC54c5ccc(O)cc5Oc5cc(O)ccc54)cc3)C(C)C)cc2)cc1)C(=O)NCc1ccc(CC(=O)N[C@H](Cc2c[nH]c3ccccc23)C(=O)N[C@H](CCCNC(=N)N)C(=O)N[C@H](C(=O)NCc2ccc(CC(=O)N[C@H](CCCNC(=N)N)C(=O)N[C@H](Cc3ccc(O)cc3)C(=O)N[C@@H](CC(C)C)C(=O)NCc3ccc(CC(=O)N[C@H](CCC(=O)O)C(=O)N[C@H](Cc4ccc(O)cc4)C(=O)N[C@H](C(=O)NCc4ccc(CC(=O)N[C@H](CCCCN)C(=O)N[C@H](Cc5ccccc5)C(=O)N[C@@H](Cc5ccccc5)C(=O)NCc5ccc(CC(=O)N[C@H](Cc6ccc(O)cc6)C(=O)N[C@H](CCCNC(=N)N)C(=O)N[C@@H](Cc6ccccc6)C(=O)NCc6ccc(CC(N)=O)cc6)cc5)cc4)C(C)C)cc3)cc2)C(C)C)cc1 [IL6-65-1] (5FAM-[dY][dL]L[X1][dY][dS]V[X1][dR][dS]F[X1][dW][dR]L[X1][dW][dR]V[X1][dR][dY]L[X1][dE][dY]V[X1][dK][dF]F[X1][dY][dR]F-{NHCH2C6H4(4-CH2CONH2)})
- Kd [1]: 500 nM

SMILES: CC(C)C[C@H](NC(=O)[C@@H](CC(N)=O)NC(=O)[C@@H](CCCCN)NC(=O)Cc1ccc(CNC(=O)[C@H](C)NC(=O)[C@H](NC(=O)[C@@H](Cc2ccccc2)NC(=O)Cc2ccc(CNC(=O)[C@H](Cc3ccccc3)NC(=O)[C@@H](CCCCN)NC(=O)[C@@H](C)NC(=O)Cc3ccc(CNC(=O)[C@H](C)NC(=O)[C@@H](CCCNC(=N)N)NC(=O)[C@@H](Cc4ccccc4)NC(=O)Cc4ccc(CNC(=O)[C@H](C)NC(=O)[C@@H](CCCCN)NC(=O)[C@H]5CCCN5C(=O)Cc5ccc(CNC(=O)[C@H](Cc6ccccc6)NC(=O)[C@@H](C)NC(=O)[C@@H](C)NC(=O)Cc6ccc(CNC(=O)[C@H](Cc7ccccc7)NC(=O)[C@@H](CC(C)C)NC(=O)[C@@H](Cc7c[nH]cn7)NC(=O)c7ccc8c(c7)C(=O)OC87c8ccc(O)cc8Oc8cc(O)ccc87)cc6)cc5)cc4)cc3)cc2)[C@H](C)O)cc1)C(=O)NCc1ccc(CC(=O)N[C@@H](C(=O)N[C@H](Cc2c[nH]cn2)C(=O)N[C@@H](CC(C)C)C(=O)NCc2ccc(CC(=O)N[C@H](Cc3ccccc3)C(=O)N[C@H](CCCCN)C(=O)NCC(=O)NCc3ccc(CC(N)=O)cc3)cc2)[C@H](C)O)cc1 [IL6-65-2, Fluorescein-(D)His-(D)Leu-(L)Phe-PAM-(D)Ala-(D)Ala-(L)Phe-PAM-(D)Pro-(D)Lys-(L)Ala-PAM-(D)Phe-(D)Arg-(L)Ala-PAM-(D)Ala-(D)Lys-(L)Phe-PAM-(D)Phe-(D)Thr-(L)Ala-PAM-(D)Lys-(D)Asn- (L)Leu-PAM-(D)Thr-(D)His-(L)Leu-PAM-(D)Phe-(D)Lys-Gly-PAM] (5FAM-[dH][dL]F[X1][dA][dA]F[X1][dP][dK]A[X1][dF][dR]A[X1][dA][dK]F[X1][dF][dT]A[X1][dK][dN]L[X1][dT][dH]L[X1][dF][dK]G-{NHCH2C6H4(4-CH2CONH2)})
- Kd [2]: 400 nM

SMILES: CC(C)C[C@H](NC(=O)[C@@H](CCCNC(=N)N)NC(=O)[C@@H](Cc1c[nH]c2ccccc12)NC(=O)Cc1ccc(CNC(=O)[C@H](Cc2ccccc2)NC(=O)[C@@H](CO)NC(=O)[C@@H](CCCNC(=N)N)NC(=O)Cc2ccc(CNC(=O)[C@H](Cc3ccccc3)NC(=O)[C@@H](CO)NC(=O)[C@@H](CCC(=O)O)NC(=O)Cc3ccc(CNC(=O)[C@H](Cc4ccccc4)NC(=O)[C@@H](Cc4c[nH]c5ccccc45)NC(=O)[C@@H](CCCNC(=N)N)NC(=O)c4ccc5c(c4)C(=O)OC54c5ccc(O)cc5Oc5cc(O)ccc54)cc3)cc2)cc1)C(=O)NCc1ccc(CC(=O)NCC(=O)N[C@H](C)C(=O)N[C@H](C(=O)NCc2ccc(CC(=O)N[C@H](CC(N)=O)C(=O)N[C@H](CCCNC(=N)N)C(=O)N[C@@H](Cc3ccccc3)C(=O)NCc3ccc(CC(=O)N[C@H](C)C(=O)N[C@H](CO)C(=O)N[C@@H](Cc4ccccc4)C(=O)NCc4ccc(CC(=O)N5CCC[C@@H]5C(=O)N[C@H](CCCNC(=N)N)C(=O)N[C@@H](C)C(=O)NCc5ccc(CC(=O)N[C@H](Cc6ccccc6)C(=O)N[C@H](CCCCN)C(=O)NCC(=O)NCc6ccc(CC(N)=O)cc6)cc5)cc4)cc3)cc2)C(C)C)cc1 [IL6-65-3, Fluorescein-(D)Arg-(D)Trp-(L)Phe-PAM-(D)Glu-(D)Ser-(L)Phe-PAM-(D)Arg-(D)Ser-(L)Phe-PAM-(D)Trp-(D)Arg-(L)Leu-PAM-Gly-(D)Ala-(L)Val-PAM-(D)Asn-(D)Arg-(L)Phe-PAM-(D)Ala-(D)Ser-(L)Phe- PAM-(D)Pro-(D)Arg-(L)Ala-PAM-(D)Phe-(D)Lys-Gly-PAM] (5FAM-[dR][dW]F[X1][dE][dS]F[X1][dR][dS]F[X1][dW][dR]L[X1]G[dA]V[X1][dN][dR]F[X1][dA][dS]F[X1][dP][dR]A[X1][dF][dK]G-{NHCH2C6H4(4-CH2CONH2)})
- Kd [2]: 90 nM

SMILES: CC(C)C[C@H](NC(=O)[C@@H](CCCCN)NC(=O)[C@@H](Cc1c[nH]cn1)NC(=O)Cc1ccc(CNC(=O)[C@H](CC(C)C)NC(=O)[C@@H](CCCNC(=N)N)NC(=O)[C@@H](Cc2c[nH]c3ccccc23)NC(=O)Cc2ccc(CNC(=O)[C@H](Cc3ccccc3)NC(=O)[C@@H](Cc3ccc(O)cc3)NC(=O)[C@@H](Cc3c[nH]cn3)NC(=O)Cc3ccc(CNC(=O)[C@H](CC(C)C)NC(=O)[C@@H](CCCNC(=N)N)NC(=O)[C@@H](CC(C)C)NC(=O)Cc4ccc(CNC(=O)[C@H](Cc5ccccc5)NC(=O)[C@@H](Cc5c[nH]c6ccccc56)NC(=O)[C@@H](CCCNC(=N)N)NC(=O)c5ccc6c(c5)C(=O)OC65c6ccc(O)cc6Oc6cc(O)ccc65)cc4)cc3)cc2)cc1)C(=O)NCc1ccc(CC(=O)N[C@H](C)C(=O)N[C@H](Cc2ccc(O)cc2)C(=O)NCC(=O)NCc2ccc(CC(=O)N[C@H](Cc3c[nH]cn3)C(=O)N[C@H](CCC(=O)O)C(=O)N[C@@H](CC(C)C)C(=O)NCc3ccc(CC(=O)N4CCC[C@@H]4C(=O)N[C@H](CCCNC(=N)N)C(=O)N[C@@H](C)C(=O)NCc4ccc(CC(=O)N[C@H](Cc5ccccc5)C(=O)N[C@H](CCCCN)C(=O)NCC(=O)NCc5ccc(CC(N)=O)cc5)cc4)cc3)cc2)cc1 [IL6-65-4, Fluorescein-(D)Arg-(D)Trp-(L)Phe-PAM-(D)Leu-(D)Arg-(L)Leu-PAM-(D)His-(D)Tyr-(L)Phe-PAM-(D)Trp-(D)Arg-(L)Leu-PAM-(D)His-(D)Lys-(L)Leu-PAM-(D)Ala-(D)Tyr-Gly-PAM-(D)His-(D)Glu-(L)Leu- PAM-(D)Pro-(D)Arg-(L)Ala-PAM-(D)Phe-(D)Lys-Gly-PAM] (5FAM-[dR][dW]F[X1][dL][dR]L[X1][dH][dY]F[X1][dW][dR]L[X1][dH][dK]L[X1][dA][dY]G[X1][dH][dE]L[X1][dP][dR]A[X1][dF][dK]G-{NHCH2C6H4(4-CH2CONH2)})
- Kd [2]: 37 nM

SMILES: CC(C)C[C@H](NC(=O)[C@@H](CCCNC(=N)N)NC(=O)CNC(=O)Cc1ccc(CNC(=O)[C@H](Cc2ccccc2)NC(=O)[C@@H](Cc2ccccc2)NC(=O)[C@@H](CO)NC(=O)c2ccc3c(c2)C(=O)OC32c3ccc(O)cc3Oc3cc(O)ccc32)cc1)C(=O)NCc1ccc(CC(=O)N[C@H](CC(C)C)C(=O)N[C@H](CCCCN)C(=O)N[C@@H](CC(C)C)C(=O)NCc2ccc(CC(=O)N[C@H](Cc3c[nH]c4ccccc34)C(=O)N[C@H](CCCNC(=N)N)C(=O)N[C@@H](CC(C)C)C(=O)NCc3ccc(CC(=O)N[C@H](C)C(=O)N[C@H](CCCCN)C(=O)N[C@@H](Cc4ccccc4)C(=O)NCc4ccc(CC(=O)N[C@H](Cc5c[nH]cn5)C(=O)N[C@H](CCCCN)C(=O)N[C@@H](Cc5ccccc5)C(=O)NCc5ccc(CC(=O)N[C@H](C)C(=O)N[C@H](CCCNC(=N)N)C(=O)N[C@@H](CC(C)C)C(=O)NCc6ccc(CC(=O)N[C@@H](C(=O)N[C@H](Cc7c[nH]cn7)C(=O)N[C@@H](CC(C)C)C(=O)NCc7ccc(CC(=O)N[C@H](Cc8ccccc8)C(=O)N[C@H](CCCNC(=N)N)C(=O)NCC(=O)NCc8ccc(CC(N)=O)cc8)cc7)[C@H](C)O)cc6)cc5)cc4)cc3)cc2)cc1 [IL6-65-5] (5FAM-[dS][dF]F[X1]G[dR]L[X1][dL][dK]L[X1][dW][dR]L[X1][dA][dK]F[X1][dH][dK]F[X1][dA][dR]L[X1][dT][dH]L[X1][dF][dR]G-{NHCH2C6H4(4-CH2CONH2)})
- Kd [1]: 33 nM
